Experimental findings from PubChem BioAssay AID328 (DTP/NCI, 2004) are described below.

The test system of this assay is BDF1 mice, P388 leukemia ip, median survival T/C. Description: NCI In Vivo Anticancer Drug Screen. Data for tumor model P388 Leukemia (intraperitoneal) in B6D2F1 (BDF1) mice. Particulars: endpoint: median survival time, higher = longer survival. The method in brief: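 Compound-treated tumour-bearing mice were compared with vehicle-treated controls. Survival was recorded, and the value is the treated-group measurement divided by the control-group measurement (T/C).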

Where [1] appears, read: dose: 100.0 mg/kg/injection, schedule: Q04DX003 (ip), vehicle: saline with Tween-80.
Where [2] appears, read: dose: 200.0 mg/kg/injection, schedule: Q04DX003 (ip), vehicle: saline with Tween-80.
The mark [3] stands for this setting: dose: 400.0 mg/kg/injection, schedule: Q04DX003 (ip), vehicle: saline with Tween-80.
The mark [4] stands for this setting: dose: 100.0 mg/kg/injection, schedule: Q01DX009 (ip), vehicle: saline with Tween-80.
[5] abbreviates: dose: 200.0 mg/kg/injection, schedule: Q01DX009 (ip), vehicle: saline with Tween-80.
The mark [6] stands for this setting: dose: 400.0 mg/kg/injection, schedule: Q01DX009 (ip), vehicle: saline with Tween-80.
Setting [7] is: dose: 50.0 mg/kg/injection, schedule: Q01DX009 (ip), vehicle: saline with Tween-80.
The mark [8] stands for this setting: dose: 3.13 mg/kg/injection, schedule: Q04DX003 (ip), vehicle: water.
Setting [9] is: dose: 6.25 mg/kg/injection, schedule: Q04DX003 (ip), vehicle: water.
[10] abbreviates: dose: 12.5 mg/kg/injection, schedule: Q04DX003 (ip), vehicle: water.
Setting [11] is: dose: 25.0 mg/kg/injection, schedule: Q04DX003 (ip), vehicle: water.
Where [12] appears, read: dose: 50.0 mg/kg/injection, schedule: Q04DX003 (ip), vehicle: water.

Where “and” joins values, the source holds several entries; their conditions need not be identical. Equal values may be shown once. Inconclusive results and toxic doses are left out.

Take `CSCS(=O)C[C@H](CO)NC(=O)/C=C/c1c(C)[nH]c(=O)[nH]c1=O` (stereo partly drawn): the T/C was 109 % of control (dose: 0.15 mg/kg/injection, schedule: Q01DX010 (ip), vehicle: saline); 122 % of control (dose: 0.3 mg/kg/injection, schedule: Q01DX010 (ip), vehicle: saline); 172 % of control (dose: 0.6 mg/kg/injection, schedule: Q01DX010 (ip), vehicle: saline); 105 % of control (dose: 0.72 mg/kg/injection, schedule: Q04DX003 (ip), vehicle: saline); 100 % of control and 109 % of control (dose: 0.78 mg/kg/injection, schedule: Q04DX002 (ip), vehicle: Klucel (hydroxypropylcellulose) (HPC)); 108 % of control (dose: 0.86 mg/kg/injection, schedule: Q04DX003 (ip), vehicle: saline). The T/C by setting is: (dose: 1.0 mg/kg/injection, schedule: Q04DX003 (ip), vehicle: saline) 121 % of control; (dose: 1.2 mg/kg/injection, schedule: Q01DX010 (ip), vehicle: saline) 100 % of control; (dose: 1.2 mg/kg/injection, schedule: Q04DX003 (ip), vehicle: saline) 123 % of control; (dose: 1.56 mg/kg/injection, schedule: Q04DX002 (ip), vehicle: Klucel (hydroxypropylcellulose) (HPC)) 109 % of control; (dose: 2.0 mg/kg/injection, schedule: Q04DX003 (ip), vehicle: saline) 156 % of control; (dose: 2.4 mg/kg/injection, schedule: Q04DX003 (ip), vehicle: saline) 97 % of control. In addition, the T/C (dose: 3.33 mg/kg/injection, schedule: Q04DX003 (ip), vehicle: saline) was 106 % of control; the T/C (dose: 6.25 mg/kg/injection, schedule: Q04DX002 (ip), vehicle: Klucel (hydroxypropylcellulose) (HPC)) was 118 % of control; the T/C (dose: 173.0 micrograms/kg/injection, schedule: Q01DX009 (ip), vehicle: saline) was 106 % of control; the T/C (dose: 288.0 micrograms/kg/injection, schedule: Q01DX009 (ip), vehicle: saline) was 110 % of control; the T/C (dose: 480.0 micrograms/kg/injection, schedule: Q01DX009 (ip), vehicle: saline) is 99 % of control.

In the case of `CCCCc1cc(O)c2c(c1O)C(=O)c1ccccc1C2=O`, the T/C was 104 % of control (dose: 100.0 mg/kg/injection, schedule: Q01DX001 (ip), vehicle: saline with Tween-80); 104 % of control (dose: 200.0 mg/kg/injection, schedule: Q01DX001 (ip), vehicle: saline with Tween-80); 90 % of control (dose: 400.0 mg/kg/injection, schedule: Q01DX001 (ip), vehicle: saline with Tween-80).

Regarding `CCCNC1=C(N2CC2)C(=O)C(NCCC)=C(N2CC2)C1=O`, the T/C was 161 % of control (dose: 1.5 mg/kg/injection, schedule: Q01DX009 (ip), vehicle: saline); 166 % of control and 203 % of control (dose: 3.0 mg/kg/injection, schedule: Q01DX009 (ip), vehicle: saline); 251 % of control and 208 % of control (dose: 6.0 mg/kg/injection, schedule: Q01DX009 (ip), vehicle: saline).

As to `COc1cc2c(cc1OC)/C(=C1\OC(=O)c3c1ccc1c3OCO1)N(C)CC2`, the T/C runs as follows: under setting [1], 100 % of control; under setting [2], 92 % of control; under setting [3], 88 % of control.

Take `Cc1ccccc1OCCCCCl`: the T/C under setting [4] was 115 % of control, the T/C under setting [5] was 107 % of control and the T/C under setting [6] was 115 % of control.

Turning to `CC(C)c1cccc(C(C)C)c1NC(=O)N1CCOCC1`, the T/C runs as follows: under setting [7], 100 % of control; under setting [4], 93 % of control; under setting [5], 90 % of control.

Consider `COc1cccc2c1C(=O)c1c(O)c3c(c(O)c1C2=O)CC(O)(/C(C)=N/NC(=O)c1cc(C(F)(F)F)cc(C(F)(F)F)c1)CC3OC1CC(N)C(O)C(C)O1` (stereo not drawn), for which the T/C under setting [8] was 113 % of control; the T/C under setting [9] is 109 % of control; the T/C under setting [10] is 153 % of control; the T/C under setting [11] was 153 % of control; the T/C under setting [12] was 118 % of control.

For `O=C(NCc1cnccn1)Oc1ccc([N+](=O)[O-])cc1`, the T/C was 112 % of control under setting [7], 94 % of control under setting [4], 86 % of control under setting [5] and 97 % of control under setting [6].

Regarding `CCOC(=O)c1c(C)cc(C)nc1[S][Sn]([Cl])([Cl])[S]c1nc(C)cc(C)c1C(=O)OCC`, the T/C by setting is: under setting [7], 99 % of control; under setting [4], 107 % of control; under setting [5], 106 % of control.

For `CCOC(=O)C(Cc1ccc(N(CCCl)CCCl)cc1)NC(=O)CNC(C)=O` (stereo not drawn), the T/C (dose: 12.5 mg/kg/injection, schedule: Q04DX003 (ip), vehicle: saline with Tween-80) is 177 % of control; the T/C (dose: 25.0 mg/kg/injection, schedule: Q04DX003 (ip), vehicle: saline with Tween-80) is 200 % of control; the T/C (dose: 33.0 mg/kg/injection, schedule: Q04DX003 (ip), vehicle: saline with Tween-80) was 280 % of control and 218 % of control; the T/C (dose: 50.0 mg/kg/injection, schedule: Q04DX003 (ip), vehicle: saline with Tween-80) is 259 % of control and 272 % of control and 170 % of control; the T/C (dose: 75.0 mg/kg/injection, schedule: Q04DX003 (ip), vehicle: saline with Tween-80) is 204 % of control.

For `O=P(N1CC1)(N1CC1)N1CC1`, the T/C (dose: 3.0 mg/kg/injection, schedule: Q01DX010 (ip), vehicle: saline) is 204 % of control.

Take `Nc1ncc(Cl)c2ccccc12`: the T/C (dose: 25.0 mg/kg/injection, schedule: Q01DX005 (ip), vehicle: saline with Tween-80) was 89 % of control.

As to `Cc1ccc(NC(=O)c2ccccc2C(=O)O)c(C)c1`, the T/C under setting [1] is 100 % of control, the T/C under setting [2] was 100 % of control and the T/C under setting [3] is 118 % of control.

As to `CCCCOC(=O)c1ccc(NC(=O)Nc2ccccc2OC)cc1`, the T/C under setting [1] was 100 % of control.

Regarding `CCCC(O)(CCC)CC(=O)OCC`, the T/C is 104 % of control (dose: 100.0 mg/kg/injection, schedule: Q04DX003 (ip), vehicle: saline sonified); 109 % of control (dose: 200.0 mg/kg/injection, schedule: Q04DX003 (ip), vehicle: saline sonified); 113 % of control (dose: 400.0 mg/kg/injection, schedule: Q04DX003 (ip), vehicle: saline sonified).

With `N#CCCSC(=S)C1CCCC1=N` (stereo not drawn), the T/C was 112 % of control under setting [4] and 102 % of control under setting [5].

Consider `COc1cc2ccncc2cc1O`, for which the T/C under setting [8] was 97 % of control; the T/C under setting [9] is 97 % of control; the T/C under setting [10] was 94 % of control; the T/C under setting [11] was 94 % of control; the T/C under setting [12] is 101 % of control.

With `C/C(=C\c1ccc2c(c1)OCO2)[N+](=O)[O-]`, the T/C was 118 % of control (dose: 85.0 mg/kg/injection, schedule: Q04DX003 (ip), vehicle: Klucel (hydroxypropylcellulose) (HPC)); 110 % of control (dose: 100.0 mg/kg/injection, schedule: Q04DX003 (ip), vehicle: Klucel (hydroxypropylcellulose) (HPC)); 109 % of control (dose: 135.0 mg/kg/injection, schedule: Q04DX003 (ip), vehicle: Klucel (hydroxypropylcellulose) (HPC)); 100 % of control and 109 % of control (dose: 200.0 mg/kg/injection, schedule: Q04DX003 (ip), vehicle: Klucel (hydroxypropylcellulose) (HPC)).

Turning to `CCC(C(=O)O)C(=O)O.[NH-]CC[NH-].[Pt+2]`, the T/C (dose: 25.0 mg/kg/injection, schedule: Q04DX003 (ip), vehicle: saline) is 100 % of control; the T/C (dose: 33.0 mg/kg/injection, schedule: Q04DX003 (ip), vehicle: saline) was 118 % of control; the T/C (dose: 50.0 mg/kg/injection, schedule: Q04DX003 (ip), vehicle: saline) was 154 % of control.

Consider `CCOC(=O)/C(C#N)=C/C=C1C=CN(C)C=C1`, for which the T/C runs as follows: under setting [7], 86 % of control; under setting [4], 105 % of control; under setting [5], 116 % of control.

`O=Cc1ccc(C(=O)O)cc1`: the T/C by setting is: under setting [1], 100 % of control; under setting [2], 109 % of control; under setting [3], 113 % of control.
